Experimental findings from patent EP2266963A1, “Fluorogenic peptidase substrate” (ECOLE NORMALE SUPERIEURE DE LYON, priority 2009, dated 2010) are described below.

Data set [1] deals with leucyl aminopeptidase. Briefly: Time-dependent fluorescence signal evolution with pure enzyme in LB medium, with or without inhibitor. The settings on record: 37°C. Type of data set: biochemical. As to the method:
Scheme 3 presents the reaction cascade initiated by cleavage of the substrate 1 or 2 by a target peptidase. [drawing 5] • Figure 1 (ordinate in arbitrary fluorescence units a.u.) represents the emission spectra (λexc = 365 nm) of substrate 2 (20 µM) before (curve a) and after incubation with leucyl aminopeptidase for 1 h (curve b) at 25 °C in Tris-HCl buffer. The experiment was monitored with a standard multi-well plate fluorescence spectrophotometer (Spectramax Gemini by Molecular Devices). • Figure 2 presents a fluorogenic test (λexc = 365 nm, λem = 495 nm) at 25 °C for the activity of leucyl aminopeptidase in Tris-HCl (25 mM, pH 7.4) using 38 µM of substrate 1 or 2 , and 0.02 U mL^-1 of leucyl aminopeptidase. The following curves for time-dependent fluorescence signal evolution were obtained : (a) substrate 2 with enzyme, (b) substrate 1 with enzyme (c) substrate 2 without enzyme but with added bovine serum albumin (0.1 mg mL^-1), (d) substrate 1 without enzyme but with added bovine serum albumin (0.1 mg mL^-1). • Figure 3 presents the time-dependent signal evolution obtained with pure enzyme in complex LB (Lysogeny broth) medium (from Fisher, "LB Broth Lennox", ref 240230) rather than in pure buffer (TRIS-HCl).
(§1) Substrate 2 concentration : 6 µM; enzyme : leucyle aminopeptidase (0.01 U); 37°C; LB medium; emission wavelength : 495 nm; Spectramax Gemini from Molecular Device.
Figure 4 presents the time-dependent signal evolution obtained with pure enzyme in LB medium in the presence or absence of a standard aminopeptidase inhibitor (bestatine).
Substrate 2 concentration : 6 µM; enzyme : leucyle aminopeptidase (0.01 U); inhibitor concentration : 10 nM; 37°C; LB medium; emission wavelength : 495 nm ;

The nature of data set [2]: Spontaneous degradation of substrate in LB medium without enzyme or cells (background fluorescence signal). Format: physicochemical. The settings on record: 37°C, emission 495 nm. As to the method:
as §1
(§2) Substrate 2 concentration : 6 µM; bacterial cell line : DH5a (Invitrogen); 37°C; LB medium; emission wavelength : 495 nm. Substrate 2 is added during the exponential growth phase at an absorbance of 0.6 to 0.8.

Data set [3] deals with bacterial cell line : DH5a. Briefly: Incubation of substrate with bacterial cells at wild-type aminopeptidase level in LB medium. Format: cell-based, E-Coli. The settings on record: Figure 5, 6 µM substrate added in exponential growth phase (absorbance 0.6 to 0.8), 37°C, emission 495 nm. As for the experimental part: as §2
Data set [4] deals with leucyl aminopeptidase. Briefly: Fluorogenic test for leucyl aminopeptidase activity in Tris-HCl buffer. Format: biochemical. The settings on record: Figure 2 curve a; substrate with enzyme; TRIS-HCl buffer 25 mM pH 7.4; 38 µM substrate; 0.02 U mL^-1 enzyme; 25 °C; λexc 365 nm, λem 495 nm. As for the experimental part:
Column chromatography was performed using silicagel Si 60 (40-63 µm). ^1H and ^13C NMR spectra were recorded at 200.13 MHz, 50.13 MHz, respectively. Chemical shifts (δ) are reported in ppm (s = singlet, d= doublet, t = triplet, m = multiplet, br = broad) and quoted with reference to tetramethyl silane or from solvent signals. NMR coupling constants (J) are reported in Hertz. Fluorescence assays were carried out in black roundbottom polypropylene 96-well-plates (NUNCLONE, Nunc Inc.) and recorded on a microplate spectrofluorimeter (Gemini XPS by Molecular Devices).
Scheme 3 presents the reaction cascade initiated by cleavage of the substrate 1 or 2 by a target peptidase. [drawing 5] • Figure 1 (ordinate in arbitrary fluorescence units a.u.) represents the emission spectra (λexc = 365 nm) of substrate 2 (20 µM) before (curve a) and after incubation with leucyl aminopeptidase for 1 h (curve b) at 25 °C in Tris-HCl buffer. The experiment was monitored with a standard multi-well plate fluorescence spectrophotometer (Spectramax Gemini by Molecular Devices). • Figure 2 presents a fluorogenic test (λexc = 365 nm, λem = 495 nm) at 25 °C for the activity of leucyl aminopeptidase in Tris-HCl (25 mM, pH 7.4) using 38 µM of substrate 1 or 2 , and 0.02 U mL^-1 of leucyl aminopeptidase. […]

Regarding `CC(C)C[C@H](NC(=O)[C@@H](O)[C@H](N)Cc1ccccc1)C(=O)O` [inhibitor (I), bestatine, reference compound], the “effect of inhibitor on signal evolution” value in data set [1] (Figure 4, inhibitor 10 nM, 6 µM substrate 2, enzyme 0.01 U) is “a delay in signal evolution can be detected”.

Take `CC(C)C[C@H](N)C(=O)NCCC(C)(C)C(=O)OCOc1ccccc1-c1nc2ccccc2c(=O)[nH]1` [substrate 2]: in data set [2] (Figure 3, LB+substrate 2, 6 µM substrate), the “time at which signal plateaus in the absence of enzyme” value was “about 12 hours”. In data set [2] (Figure 5, LB + substrate 2, no cells, 6 µM substrate), the “time at which signal reaches a plateau through slow degradation of the substrate” value was found to be 10 h. In addition, the “time at which signal reaches a plateau on incubation with cells” value in data set [3] was 2.5 h. Further, the “time at which fluorescence signal reaches a plateau” value in data set [4] was 0.5 h; in data set [1] (Figure 3, LB+E+substrate 2, 6 µM substrate, enzyme 0.01 U, emission 495 nm) it was “approximately 1 hour”. In addition, in data set [1] (Figure 4, LB+E+I+substrate 2, inhibitor bestatine 10 nM, 6 µM substrate, enzyme 0.01 U), the “time at which signal reaches the same level as the uninhibited reaction” value was 2.5 h. Also, the “time at which fluorescence signal reaches a plateau (uninhibited reaction)” value in data set [1] (Figure 4, LB+E+substrate 2, no inhibitor, 6 µM substrate, enzyme 0.01 U, emission 495 nm) was “about 1.5 h”.
